Test system: STAM model of Non-alcoholic Steatohepatitis
Test: in vivo efficacy study of 15-OHEPA and EPA in STAM model of non-alcoholic steatohepatitis
Design: species or system C57BL/6 mice
Conditions: for liver weight as compared to the vehicle control: FIG. 1.2; for NAFLD Activity score (NAS) as compared to the vehicle control: HE staining, FIGS. 2.1 and 2.2
Source text: The purpose of this study was to examine the effects of 15-OHEPA and EPA in the STAM model of Non-alcoholic Steatohepatitis. Pathogen-free15-day-pregnant C57BL/6 mice were obtained from Charles River Laboratories in Japan Inc. (Kanagawa, Japan). NASH was established in male mice by a single subcutaneous injection of streptozotocin (STZ) (Sigma, USA) after birth and feeding with a high fat diet (HFD; CLEA) Japan, Japan) ad libitum after 4 weeks of age (day 28±2). Mice were randomized into 5 groups of 8 mice at 5 weeks of age (day 35±2) the day before the start of treatment. During the treatment period, individual body weight was measured daily as well as clinical signs of behavior and survival. Group 1 (Vehicle): Eight NASH mice were orally administered vehicle [olive oil] in a volume of 10 mL/kg once daily from 5 to 9 weeks of age. Group 2 (15-OHEPA 50 mg/kg): Eight NASH mice were orally administered vehicle supplemented with 15-OHEPA at a dose of 50 mg/kg once daily from 5 to 9 weeks of age. Group 3 (15-OHEPA 500 mg/kg): Eight NASH mice were orally administered vehicle supplemented with 15-OHEPA at a dose of 500 mg/kg once daily from 5 to 9 weeks of age. Group 4 (EPA 500 mg/kg): Eight NASH mice were orally administered vehicle supplemented with EPA at a dose 500 mg/kg once daily from 5 to 9 weeks of age. Group 5 (positive control): Eight NASH mice were orally administered pure water supplemented with Telmisartan at a dose of 10 mg/kg once daily from 5 to 9 weeks of age. At 9 weeks of age, all mice were sacrificed and the following data was recorded; • Individual liver weight • Liver to body weight ratio Histopathological analyses of liver sections were performed using HE staining (to estimate NAFLD Activity score). For HE staining, sections were cut from paraffin blocks of liver tissue prefixed in Bouin's solution and stained with Lillie-Mayer's Hematoxylin (Muto Pure Chemicals, Japan) and eosin solution (Wako Pure Chemical Industries). NAFLD Activity score (NAS) was calculated according to the criteria of Kleiner (Kleiner D E. et al., Hepatology, 2005; 41:1313). Statistical tests were performed using Bonferroni Multiple Comparison Test. P values <0.05 were considered statistically significant.

[1] = 15-OHEPA 500 mg/kg oral once daily from 5 to 9 weeks of age
[2] = positive control, Telmisartan 10 mg/kg oral once daily from 5 to 9 weeks of age

Row | Compound | liver weight as compared to the vehicle control [1] | NAFLD Activity score (NAS) as compared to the vehicle control [1] | potency in the treatment of FLD relative to EPA (summary statement) | liver weight as compared to the vehicle control [2] | NAFLD Activity score (NAS) as compared to the vehicle control [2]
1 | CCC=CCC(O)C=CC=CCC=CCC=CCCCC(=O)O (centres unmarked) [15-OHEPA, 15-Hydroxy-eicosa-5,8,11,13,17-pentaenoic acid] | significant reduction | significantly decreased | more potent than EPA |  | 
2 | CCCc1nc2c(C)cc(-c3nc4ccccc4n3C)cc2n1Cc1ccc(-c2ccccc2C(=O)O)cc1 [telmisartan, Telmisartan, reference compound] |  |  |  | significant reduction | significantly decreased
